We go through 11 compounds from patent US4395552A, “Antimicrobial bis-imidazolo-pyridine compound” (The Purdue Frederick Company, priority 1980, dated 1983).

Structures can show the parent of a compound that is named as a salt.

By LD50 is commonly meant the dose at which mortality reaches 50%.

One series concerns Escherichia coli. The series can be described thus: minimum inhibitory concentration, antibacterial spectrum (Table I). Type of series: cell-based. Conditions: 32 P.P.M. The protocol: (§1) The compounds listed in Table I below were tested for their antibacterial spectrum by the method of:
(§2) Silverblatt, F. and M. Turck, 1969. Antimicrobial Agents and Chemothreapy; 1968, p. 279-285.
(§3) Wallace, J. F., E. Atlas, D. M. Bear, N. K. Brown, H. Clark and M. Turk, 1971. Antimicrobial Agents and Chemotherapy; 1970, p. 223-266.

The next series relates to Pseudomonas aeruginosa. The description is as above. Format: cell-based. To be noted: 32 P.P.M. The protocol: as §1, §2, §3
For a further series, the system named is Staphylococcus aureus. The series is described as above. Format: cell-based. To be noted: 32 P.P.M. The protocol: as §1, §2, §3
In another series the test system is Diplococcus pneumoniae. The series can be described thus: minimum inhibitory concentration / in vitro spectrum of activity. To be noted: Streptococcus pneumoniae, footnote of Table I. Type of series: cell-based. As to the method:
as §1, §2, §3

The next series relates to Klebsiella pneumonia. The description is as above. Format: cell-based. Conditions: Klebsiella pneumoniae, footnote of Table I. The protocol: as §1, §2, §3
A further series deals with Salmonella typhosa. Described as above. Format: cell-based. To be noted: Salmonella enterica, read-out: minimum inhibitory concentration (MIC). As to the method: as §1, §2, §3
The next series deals with Streptococcus pyogenes. The description is as above. Type of series: cell-based. To be noted: footnote of Table I. The protocol: as §1, §2, §3
Series [1] can be described thus: LD50 upon oral administration to mice. Conditions: mouse, in vivo.
The test system of a further series is Candida albicans. The series can be described thus: minimum inhibitory concentration, antimicrobial spectrum (Table I). Type of series: cell-based. Conditions: 32 P.P.M. The protocol:
as §1, §2, §3

As for `N=C(NCCCCCCNC(=N)Nc1nc2ccccc2[nH]1)Nc1nc2ccccc2[nH]1` [Compound 1024, N'-N"-bis-[2-benzimidazole]-2,9-diazadecane diimidamide dihydrochloride], the MIC against Escherichia coli was 4 µg/mL; in the series on Pseudomonas aeruginosa, 16 µg/mL; against Staphylococcus aureus, 4 µg/mL; in the series with Diplococcus pneumoniae, 2 µg/mL; in the series on Klebsiella pneumonia, 500 µg/mL; in the series with Salmonella typhosa it was 4 µg/mL. The same compound gave an MIC against Streptococcus pyogenes of 1 µg/mL. The compound further gave a 50% lethal dose (LD50) in series [1] of 4000 mg/kg.
In turn, `N=C(NCCCCCCNC(=N)Nc1nc2cc(Cl)c(S(N)(=O)=O)cc2[nH]1)Nc1nc2cc(Cl)c(S(N)(=O)=O)cc2[nH]1` [Compound 1045, N'-N"-bis-[2-(5'-chloro-6'-sulfamylbenzimidazole)]-2,9-diazadecane diimidamide dihydrochloride] registered an MIC with Escherichia coli of 8 µg/mL.
With `N=C(NCCCCCCCNC(=N)Nc1nc2ccccc2[nH]1)Nc1nc2ccccc2[nH]1` [Compound 1046, N'-N"-bis-[2-benzimidazole]-2,10-diazaundecane diimidamide dihydrochloride], the values for the MIC with Escherichia coli, in the series with Staphylococcus aureus and in the series on Candida albicans were 8 µg/mL, 8 µg/mL and 16 µg/mL, respectively.
As for `N=C(NCCNC(=N)Nc1nc2ccccc2[nH]1)Nc1nc2ccccc2[nH]1` [Compound 1069, N'-N"-bis[2-benzimidazole]-2,5-diazahexane diimidamide dihydrochloride], the MIC in the series with Escherichia coli came to 32 µg/mL.
Consider `Cc1ccc2nc(NC(=N)NCCNC(=N)Nc3nc4ccc(C)cc4[nH]3)[nH]c2c1` [Compound 1072, N'-N"-bis-[2-(6-methylbenzimidazole)]-2,5-diazahexane diimidamide dihydrochloride monohydrate], for which the results for the MIC in the series on Escherichia coli, in the series with Pseudomonas aeruginosa and with Staphylococcus aureus were 4 µg/mL, 16 µg/mL and 16 µg/mL, respectively.
As to `Cc1ccc2nc(NC(=N)NCCCCCNC(=N)Nc3nc4ccc(C)cc4[nH]3)[nH]c2c1` [Compound 1074, N'-N"-bis-[2-(6-methylbenzimidazole)]-2,8-diazanonane diimidamide dihydrochloride hemipentahydrate], the MIC came out at 4 µg/mL with Escherichia coli, 8 µg/mL in the series on Pseudomonas aeruginosa, 8 µg/mL against Staphylococcus aureus and 16 µg/mL in the series with Candida albicans.
Take `N=C(NCCCCCNC(=N)Nc1nc2ccc(Cl)cc2[nH]1)Nc1nc2ccc(Cl)cc2[nH]1` [Compound 1075, N'-N"-bis-[2-(6-chlorobenzimidazole)]-2,8,diazanonane diimidamide dihydrochloride hydrate]: the MIC in the series with Escherichia coli and in the series with Staphylococcus aureus was 2 µg/mL in each case.
With `N=C(NCCCCCNC(=N)Nc1nc2ccccc2[nH]1)Nc1nc2ccccc2[nH]1` [Compound 1079, N'-N"-bis-[2-benzimidazole]-2,8-diazanonane diimidamide dihydrochloride dihydrate], the MIC with Escherichia coli and against Staphylococcus aureus was 8 µg/mL in each case.
Turning to `N=C(NCCCCCCCCNC(=N)Nc1nc2ccccc2[nH]1)Nc1nc2ccccc2[nH]1` [Compound 1080, N'-N"-bis-[2-benzimidazole]-2,11-diazadodecane diimidamide dihydrochloride dihydrate], the MIC with Escherichia coli and against Staphylococcus aureus was 1 µg/mL throughout.
Take `Cc1ccc2nc(NC(=N)NCCCCCCNC(=N)Nc3nc4ccc(C)cc4[nH]3)[nH]c2c1` [Compound 1081, N'-N"-bis-[2-(6-methyl-benzimidazole)]-2,9-diazadecane diimidamide dihydrochloride dihydrate]: the MIC was determined as 1 µg/mL against Escherichia coli, 8 µg/mL in the series with Pseudomonas aeruginosa, 1 µg/mL against Staphylococcus aureus and 8 µg/mL against Candida albicans.
Compound `N=C(NCCNC(=N)Nc1nc2ccc(Cl)cc2[nH]1)Nc1nc2ccc(Cl)cc2[nH]1` [Compound 1105, N'-N"-bis-[2-(6-chlorobenzimidazole)]-2,5-diazahexanediimidamide dihydrochloride sesquihydrate] gave an MIC in the series with Staphylococcus aureus of 5 µg/mL.
